Measurements as given in BindingDB's records for doi:10.1016/s0960-894x(02)00489-4 (University of Antwerp (Uia), 2002).
Where a SMILES comes first, the peptide text is derived from it.

Target: T1, Glutathionylspermidine synthase (Crithidia fasciculata, UniProt P90518)
T1 sequence (P90518 whole entry): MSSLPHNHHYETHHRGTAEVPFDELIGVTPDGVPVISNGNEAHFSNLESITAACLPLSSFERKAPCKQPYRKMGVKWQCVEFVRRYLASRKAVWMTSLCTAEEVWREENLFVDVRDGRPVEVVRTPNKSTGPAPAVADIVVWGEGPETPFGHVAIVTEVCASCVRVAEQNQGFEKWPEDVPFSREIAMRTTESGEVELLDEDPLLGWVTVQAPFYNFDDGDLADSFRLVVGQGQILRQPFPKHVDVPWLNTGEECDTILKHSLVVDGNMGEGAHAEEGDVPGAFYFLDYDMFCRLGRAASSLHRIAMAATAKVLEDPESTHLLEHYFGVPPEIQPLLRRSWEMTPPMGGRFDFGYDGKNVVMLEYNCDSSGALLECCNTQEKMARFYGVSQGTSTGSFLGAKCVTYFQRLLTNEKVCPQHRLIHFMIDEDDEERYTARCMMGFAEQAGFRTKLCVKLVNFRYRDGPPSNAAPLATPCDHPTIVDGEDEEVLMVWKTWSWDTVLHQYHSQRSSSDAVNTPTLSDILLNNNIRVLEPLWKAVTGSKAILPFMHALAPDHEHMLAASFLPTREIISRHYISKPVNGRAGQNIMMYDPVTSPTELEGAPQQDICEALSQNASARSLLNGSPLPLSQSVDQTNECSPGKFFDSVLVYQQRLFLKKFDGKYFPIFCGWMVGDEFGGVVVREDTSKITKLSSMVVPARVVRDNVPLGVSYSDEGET
Test: Inhibitory activity against amidase free Glutathionylspermidine Synthetase mutant (C79A)

CC(C)C[C@H](NC(=O)CC[C@H](N)C(=O)O)C(=O)NCC(N)=O [2-Amino-4-[1-(carbamoylmethyl-carbamoyl)-3-methyl-butylcarbamoyl]-butyric acid] (HELM PEPTIDE1{[gGlu].L.G.[am]}$$$$V2.0)
IC50: > 2000 nM
